Reference: US20110195924A1, “Methods of Inhibiting the Interaction Between S100P and the Receptor for Advanced Glycation End-Products” (priority 2008, published 2011)
“And” between values parts separate entries of the source, which are not always exact repeats. Equal values may be shown once.

Key:
BxPC-3 cells [1] = test: BxPC-3 apoptosis by flow cytometry (PI staining); type: cell-based; settings: 48 hours
Description: BxPC-3 cells were treated with cromolyn (10 μM) with (+) or without (−) gemcitabine (10 μM), and apoptosis was analyzed after 48 hours by flow cytometry. *, P<0.001 versus control, #, P=0.001 versus gemcitabine. Means and 95% confidence intervals of three independent experiments performed in triplicate are shown. Two-tailed two-sample (unpaired) Student's t-tests were used to determine P values. Standard propidium iodide (PI) staining by the hypotonic lysis method was used for apoptosis studies. Apoptosis was induced in 1.0×10^6 BxPC-3 cells by treatment with gemcitabine (10 μM), with or without cromolyn. After 48 hours the cells were detached from culture dishes by incubation in 0.05% trypsin-EDTA, washed once with cold PBS, and then incubated for 30 minutes in 500 μL of hypotonic solution (0.1% sodium citrate, 0.1% Triton X-100, 100 μg/mL RNAse, and 50 μg/mL PI), and analyzed by flow cytometry (EPICS XL, Beckman Coulter Inc, Fullerton, Calif.). Cells undergoing apoptosis that had lost part of their DNA were identified as the population of cells with sub-G1 DNA content. These assays were performed three times.

BxPC-3 tumors = test: BxPC-3 orthotopic tumor growth and metastasis in scid mice; type: in vivo; settings: BxPC-3 model; for lung metastasis, mean: control 5.5×10^8; for tumor burden, difference versus control / tumor burden, mean: end of six weeks; for tumor burden, mean: gemcitabine 125 mg/kg bi-weekly i.p., cromolyn 5 mg/kg daily i.p., control 1.6×10^9
Description: FIGS. 4A-4F show the effect of cromolyn on BxPC-3 tumor growth and metastasis in vivo. BxPC-3 cells stably expressing the firefly luciferase gene were injected orthotopically into 4 week old male CB 17 scid mice. […] Mice were divided into four groups of five mice each with an equivalent mean tumor size between groups. […] One group was treated with water (control), one group received gemcitabine bi-weekly (125 mg kg body weight bi-weekly by intraperitoneal injection), one group was administered cromolyn daily (5 mg per kg body weight daily by intraperitoneal injection), and the final group was given the combination of daily cromolyn and bi-weekly gemcitabine. All groups were treated for six weeks. Bioluminescent imaging was done weekly to assess tumor growth. […] Means and 95% confidence intervals are shown. (n=20). Two-tailed two-sample (unpaired) Student's t-tests were used to determine P values. The anti-tumorigenic capability of the drug cromolyn was assessed in 4-week-old male CB 17 scid mice (n=20) carrying orthopic tumors of BxPC-3, MPanc96, and Panc-1 cells stably expressing a Lenti-luc reporter. All mouse experiments were reviewed and approved by the Institutional Animal Care and Use Committee of UT MD Anderson Cancer Center. All mice were maintained in a sterile environment. Cages, bedding, food, and water were all autoclaved. All mice were maintained on a daily 12-hour light/12-hour dark cycle, according to the institutional animal welfare guidelines. BxPC-3, MPanc96, and Pane-1 cells carrying the Lenti-luc reporter gene were grown to 80% confluence, harvested by incubation with trypsin-EDTA, washed twice in PBS, and resuspended to a final concentration of 4.0×10^6 cells/mL. Each mouse (n=20 mice per cell line) was injected (into the pancreas) with cell suspensions (50 μL). Bioluminescent imaging to determine tumor volume was performed 1 week after injection because the tumors became established within this amount of time. This initial tumor volume was used to divide the mice into four groups of five mice each, such that the mean tumor size was equal between groups (FIGS. 4A, 5A, and 6A). To allow enough time to observe differences among treatment groups, the mice were followed for the next 5 weeks. One group of mice was then treated biweekly with a sub-maximal concentration of gemcitabine (125 mg per kg body weight by i.p. injection). A second group was treated with a daily injection of cromolyn (5 mg per kg body weight by i.p. injection). A third group was treated with both bi-weekly gemcitabine and daily cromolyn. The control group was treated daily with vehicle. Treatments were continued for 5 weeks, and the effects on the tumor burden and metastasis were analyzed by weekly bioluminescence imaging (FIGS. 4B, 5B, and 6B). At the end of the experiment the mice were anesthetized with 1.5% isofluorane/air mixture and killed by cervical dislocation. Bioluminescence imaging was conducted using a cryogenically cooled IVIS 100 imaging system coupled to a data acquisition computer running Living Image software (Xenogen Corp., Alameda, Calif.). Before imaging, mice were placed in an acrylic chamber, anesthetized with 1.5% isofluorane/air mixture, and injected i.p. with 15 mg/mL of luciferin potassium salt in PBS at a dose of 150 mg per kg body weight. A digital grey scale image of each mouse was acquired, followed by acquisition and overlay of a pseudocolor image representing the spatial distribution of detected photons emerging from active luciferase within the mouse. Tumor volume was quantified as the sum of all detected photons within the region of the tumor per second. At the end of experiment, the mice were killed, and tumors were surgically removed and weighed. After the primary tumors were removed, cancer cell dissemination and metastasis was visualized using IVIS imaging, and metastatic colonies were counted. Subsequently, tissues were fixed with formaldehyde, and histology was used to verify the accuracy of the bioluminescence data. […]

BxPC-3 cells [2] = test: BxPC-3 cell viability, alone or with gemcitabine; type: cell-based; settings: 72 hours
Description: BxPC-3 cells were plated at 1.0×10^3 cells/well and treated with 0 μM, 1 μM, 10 μM, and 100 μM of cromolyn or C5 alone or in combination with gemcitabine 1 μM and cell viability was analyzed after 72 hours. Two-tailed two-sample (unpaired) Student's t-tests were used to determine P values. […] BxPC-3 cells were plated at 1.0×10^3 cells/well and treated with either 100 μM of cromolyn or 1 μM C5 alone or in combination with gemcitabine (1 μM) and cell viability was analyzed after 72 hours.

SMILES	apoptotic cells, difference versus control (BxPC-3 cells [1]; gemcitabine 10 μM) [%]	apoptotic cells, mean (BxPC-3 cells [1]; gemcitabine 10 μM, control 3.7%)	body weight, difference versus control (BxPC-3 tumors) [g]	lung metastasis, mean (BxPC-3 tumors)	body weight at the end of the experiment, mean (BxPC-3 tumors; control 31.1) [g]	tumor burden, difference versus control (BxPC-3 tumors)	tumor burden, mean (BxPC-3 tumors)	metastasis in lung or liver compared with control mice (BxPC-3 tumors; treatment alone)	cell apoptosis, cromolyn alone (BxPC-3 cells [1]; cromolyn 10 μM)	liver metastasis (in words) (BxPC-3 tumors)	lung metastasis, difference versus control (BxPC-3 tumors)	effect on body weight (in words) (BxPC-3 tumors; up to 6 weeks)	concentration giving the same level of cell reduction in combination with gemcitabine (BxPC-3 cells [2]; BxPC-3, gemcitabine 1 μM, FIG. 10) [µM]	BxPC-3 cell viability (BxPC-3 cells [2]; alone and in conjunction with gemcitabine 1 μM)
Nc1ccn([C@@H]2O[C@H](CO)[C@@H](O)C2(F)F)c(=O)n1 [gemcitabine]	27.3	31.0% and 30.8%	3.9	3.9×10^8 photons/sec	27.2	6.8×10^8 photons/sec	9.2×10^8 photons/sec	did not reduce						
O=C(O)c1cc(=O)c2c(OCC(O)COc3cccc4oc(C(=O)O)cc(=O)c34)cccc2o1 [cromolyn, disodium 1,3-bis[(2′-carboxylatochromon-5′-yl)oxy]-2-hydroxypropane]				1.6×10^8 photons/sec		1.2×10^9 photons/sec	4.4×10^8 photons/sec		no statistically significant effect	but not liver metastasis	3.9×10^8 photons/sec	no effect	100	inhibit
